Experimental data reported in US6428820B2, “Extracts of Hypericum perforatum and formulations containing them” (Indena S.p.A., priority 1999, dated 2002).
Converted amounts (≈) assume the structure as drawn.

Legend:
serotonin (5-HT) uptake = experiment: Inhibition of 3H 5-HT (serotonin) uptake; type: biochemical; conditions: inhibition of 3H 5-HT uptake
dopamine (DA) uptake = conditions: inhibition of 3H DA uptake

| Compound | IC50 3H-5 HT uptake (serotonin (5-HT) uptake) [mg/L] | IC50 3H DA uptake (dopamine (DA) uptake) [mg/L] |
| --- | --- | --- |
| Cc1cc(O)c2c(=O)c3c(O)cc(O)c4c5c(O)cc(O)c6c(=O)c7c(O)cc(CO)c8c1c2c(c34)c(c65)c78 [Pseudo-hypericin] | 27.0 ± 1.1020 (≈ 51.9 µM) | 1.40 ± 0.13 (≈ 2.69 µM) |
| Hyperforin | 4.75 ± 0.79 | 1.54 ± 0.23 |
